PubChem BioAssay (NCI)
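Compound exposure: 48 hours, 5 concentrations, 96-well plates. TGI is the concentration that stops growth completely.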

Tests used:
Test in all cases: inhibition of tumour cell growth, NCI panel, 48 h
[1] = test system: 786-0 renal
[2] = test system: A498 renal
[3] = test system: A549 NSCLC
[4] = test system: ACHN renal
[5] = test system: CAKI-1 renal
[6] = test system: CCRF-CEM leukemia
[7] = test system: COLO 205 colon
[8] = test system: DU-145 prostate
[9] = test system: EKVX NSCLC
[10] = test system: HCC-2998 colon
[11] = test system: HCT-116 colon
[12] = test system: HCT-15 colon
[13] = test system: HL-60(TB) leukemia
[14] = test system: HOP-92 NSCLC
[15] = test system: HS 578T breast
[16] = test system: HT29 colon
[17] = test system: IGROV1 ovarian
[18] = test system: K-562 leukemia
[19] = test system: KM12 colon
[20] = test system: LOX IMVI melanoma
[21] = test system: MALME-3M melanoma
[22] = test system: MCF7 breast
[23] = test system: MDA-MB-231 breast
[24] = test system: MDA-N
[25] = test system: MOLT-4 leukemia
[26] = test system: NCI-H23 lung
[27] = test system: NCI-H460 lung
[28] = test system: NCI/ADR-RES ovarian
[29] = test system: OVCAR-3 ovarian
[30] = test system: OVCAR-4 ovarian
[31] = test system: OVCAR-5 ovarian
[32] = test system: OVCAR-8 ovarian
[33] = test system: PC-3 prostate
[34] = test system: RPMI-8226 leukemia
[35] = test system: SF-268 CNS
[36] = test system: SF-295 CNS
[37] = test system: SF-539 CNS
[38] = test system: SK-MEL-2 melanoma
[39] = test system: SK-MEL-28 melanoma
[40] = test system: SK-MEL-5 melanoma
[41] = test system: SK-OV-3 ovarian
[42] = test system: SN12C renal
[43] = test system: SNB-19 CNS
[44] = test system: SNB-75 CNS
[45] = test system: SR leukemia
[46] = test system: SW-620 colon
[47] = test system: T-47D breast
[48] = test system: TK-10 renal
[49] = test system: U251 CNS
[50] = test system: UACC-257 melanoma
[51] = test system: UO-31 renal
[52] = test system: HOP-62 NSCLC
[53] = test system: M14 melanoma
[54] = test system: MDA-MB-435
[55] = test system: NCI-H226 lung
[56] = test system: NCI-H522 lung
[57] = test system: UACC-62 melanoma

C/C(Cl)=N\OC(=O)Nc1ccccc1C(F)(F)F
TGI [1]: 38.6 µM | TGI [2]: > 100 µM | TGI [3]: > 100 µM | TGI [4]: 35.2 µM | TGI [5]: > 100 µM | TGI [6]: 53 µM | TGI [7]: 43.6 µM | TGI [8]: > 100 µM | TGI [9]: 57.6 µM | TGI [10]: > 100 µM | TGI [11]: > 100 µM | TGI [12]: > 100 µM | TGI [13]: 15.5 µM | TGI [14]: 19 µM | TGI [15]: > 100 µM | TGI [16]: 34.7 µM | TGI [17]: > 100 µM | TGI [18]: 40.3 µM | TGI [19]: > 100 µM | TGI [20]: 29.2 µM | TGI [21]: 48.1 µM | TGI [22]: 61.5 µM | TGI [23]: 46.9 µM | TGI [24]: 31.7 µM | TGI [25]: 47.9 µM | TGI [26]: > 100 µM | TGI [27]: > 100 µM | TGI [28]: 47.5 µM | TGI [29]: 29.2 µM | TGI [30]: 26.9 µM | TGI [31]: > 100 µM | TGI [32]: > 100 µM | TGI [33]: > 100 µM | TGI [34]: 45.2 µM | TGI [35]: > 100 µM | TGI [36]: > 100 µM | TGI [37]: > 100 µM | TGI [38]: > 100 µM | TGI [39]: 42.3 µM | TGI [40]: > 100 µM | TGI [41]: > 100 µM | TGI [42]: > 100 µM | TGI [43]: > 100 µM | TGI [44]: > 100 µM | TGI [45]: 44.9 µM | TGI [46]: 36.1 µM | TGI [47]: > 100 µM | TGI [48]: 28.8 µM | TGI [49]: > 100 µM | TGI [50]: > 100 µM | TGI [51]: > 100 µM

C=CC1OC(CCCOC(=O)C(C)(C)C)O[C@@H]1CC (some centres not stated)
TGI [2]: > 100 µM | TGI [3]: > 100 µM | TGI [4]: > 100 µM | TGI [5]: > 100 µM | TGI [6]: > 100 µM | TGI [7]: > 100 µM | TGI [8]: > 100 µM | TGI [9]: > 100 µM | TGI [12]: > 100 µM | TGI [13]: > 100 µM | TGI [52]: > 100 µM | TGI [14]: > 100 µM | TGI [15]: > 100 µM | TGI [16]: > 100 µM | TGI [17]: > 100 µM | TGI [19]: > 100 µM | TGI [53]: > 100 µM | TGI [22]: > 100 µM | TGI [23]: > 100 µM | TGI [54]: > 100 µM | TGI [24]: > 100 µM | TGI [25]: > 100 µM | TGI [55]: > 100 µM | TGI [26]: > 100 µM | TGI [27]: > 100 µM | TGI [56]: > 100 µM | TGI [28]: > 100 µM | TGI [29]: > 100 µM | TGI [30]: > 100 µM | TGI [31]: > 100 µM | TGI [32]: > 100 µM | TGI [33]: > 100 µM | TGI [34]: > 100 µM | TGI [35]: > 100 µM | TGI [36]: > 100 µM | TGI [37]: > 100 µM | TGI [38]: > 100 µM | TGI [39]: > 100 µM | TGI [40]: > 100 µM | TGI [41]: > 100 µM | TGI [42]: > 100 µM | TGI [43]: > 100 µM | TGI [44]: > 100 µM | TGI [45]: > 100 µM | TGI [46]: > 100 µM | TGI [47]: > 100 µM | TGI [48]: > 100 µM | TGI [49]: > 100 µM | TGI [50]: > 100 µM | TGI [57]: > 100 µM | TGI [51]: > 100 µM
